Experiments:
[1] = tested on: pERK in HCT-116 cells (KRAS G13D); experiment: Phospho-ERK inhibition (AlphaLISA SureFire Ultra p-ERK 1/2), HCT116; type: cell-based, human; conditions: HCT116 cells; for HCT116 pERK Ymin %: Ymin in brackets
Procedure: (§1) All cancer cell lines (A375, A101D, A2058, RKO, HT29 SK-MEL 30, IPC298, HepG2, HCT-116, Lovo, SWV620, SW480, NCI-H358, NCI-H2122, Calu-6, NCIH2087, NCIH1755, NCIH1666 and Mewo) were obtained from ATCC and cultured in RPMI-1640 medium (Gibco) supplemented with 5% heat inactivated fetal bovine serum (FBS, Wisent) at 37° C. under 5% CO2. Cells were maintained in T175 flasks (Greiner). They were passaged by removing the culture medium, washing once in 10 mL of room temperature Phosphate Buffered Saline (PBS; Wisent) and incubating at 37° C. with 2 mL of 0.05% Trypsin (Thermo-Fisher). Trypsin was then inactivated by adding complete growth medium and the cells were then replated in a T175 culture dish at the appropriate dilution. All cell lines were routinely tested for mycoplasma contamination. Tissue type and mutational status of each cell line can be found in Table B.
(§2) AlphaLISA® SureFire® Ultra™ p-ERK 1/2 (Thr202/Tyr204) analysis was conducted on cells plated in 100 μL of complete RPMI-1640 growth medium in 96-well flat-bottomed transparent dishes (Costar) at a density indicated in Table C. Cells were maintained overnight at 37° C. under 5% CO2 before treatment with compounds' dilution series for one hour. The cell density in cells/cm^2 corresponds to cell number divided by the area of one well of a 96-well plate ([…]).
(§3) In a dilution series 100 μL/well of test substance dilution prepared in complete RPMI-1640 growth media was added to the cells. The dilution series is selected so that ten concentrations cover a range from 10 μM to 0.33 nM. If necessary the initial concentration of 10 μM is increased to 100 μM or lowered to 1 μM (as in the case of A375 and H1666 cells, which are generally more sensitive to the compounds) and further dilution is carried out accordingly. The final concentration of DMSO in the assay is set at 0.5%.
(§4) After treatment, media was removed and cells were lysed in 50 μL of 1× AlphaScreen Ultra Lysis Buffer (Perkin Elmer). The AlphaLISA® SureFire® Ultra™ p-ERK 1/2 (Thr202/Tyr2O4) (PerkinElmer) reactions were performed with 5 μL of cell lysate according to the manufacturer's specifications in 384-well proxyplates (Perkin Elmer) followed by overnight incubation of the reactions at room temperature in a humidified chamber. After completion of the reactions, the signals were recorded on an EnVision plate reader (Perkin Elmer) using built in AlphaLISA® settings.
(§5) The effect of each compound dilution on the pERK signal was expressed in % inhibition and calculated as follows. An internal 100% inhibition control ([…] trametinib, cat #HY-10999; MedChem Express; CAS #871700-17-3) was included in each plate and used as a measure of pERK background. First, the value obtained for trametinib was subtracted from each data point. The average of DMSO (vehicle) controls (set as 0% inhibition) was established and used to calculate % inhibition: % inhibition=100*(1-((pERK signalcompound)/(pERK signalDMSO)))
(§6) The ability of each compound to inhibit pERK signal was expressed as an IC50 value obtained by plotting the inhibition values for each data point of a dilution series and fitting the obtained curves using a log(agonist) versus response-variable slope (four parameters) function using GraphPadPrism (V7.0) or Dotmatics Screening Ultra platform.
(§7) When present, paradoxical pERK induction is inferred from the negative % inhibition values observed in the pERK IC50 curves of a compound.

[2] = tested on: pERK in SW480 cells (KRAS G12D); experiment: Phospho-ERK inhibition (AlphaLISA), SW480; type: cell-based, human; conditions: SW480 cells; for SW480 pERK Ymin %: Ymin in brackets; for IC50: class symbol before the bracket
Procedure: as §1, §2, §3, §4, §5, §6, §7

[3] = class symbol before the bracket

COc1ccc(S(=O)(=O)Nc2ccc(F)c(Nc3ncnc4ccc(-n5cnc(C)c5C)nc34)c2F)cc1 [Ex 32]
HCT116 pERK Ymin % [1]: 17%
IC50 [1, 3]: 1000 to 10000 nM
SW480 pERK Ymin % [2]: 2%
IC50 [2]: 1000 to 10000 nM

COc1ccc(S(=O)(=O)Nc2ccc(F)c(Nc3ncnc4ccc(-n5ccnc5)nc34)c2F)cc1 [Ex 33]
HCT116 pERK Ymin % [1]: 5%
IC50 [1, 3]: 1000 to 10000 nM
SW480 pERK Ymin % [2]: 0%
IC50 [2]: 1000 to 10000 nM

COc1ccc(S(=O)(=O)Nc2ccc(F)c(Nc3ncnc4ccc(-c5cncnc5)nc34)c2F)c(C)c1 [Ex 56]
HCT116 pERK Ymin % [1]: −9%
IC50 [1, 3]: 1000 to 10000 nM
SW480 pERK Ymin % [2]: 7%
IC50 [2]: 500 to 1000 nM

COc1ccc(S(=O)(=O)Nc2ccc(F)c(Nc3ncnc4ccc(-c5cnc(OC)nc5)nc34)c2F)c(C)c1 [Ex 57]
HCT116 pERK Ymin % [1]: -8%
IC50 [1, 3]: 1000 to 10000 nM
SW480 pERK Ymin % [2]: -9%
IC50 [2]: 1000 to 10000 nM

COc1ccc(S(=O)(=O)Nc2ccc(F)c(Nc3ncnc4ccc(-c5ccsc5)nc34)c2F)c(C)c1 [Ex 58]
HCT116 pERK Ymin % [1]: −1%
IC50 [1, 3]: 10000 to 30000 nM
SW480 pERK Ymin % [2]: 2%
IC50 [2]: 1000 to 10000 nM

COc1ccc(S(=O)(=O)Nc2ccc(F)c(Nc3ncnc4ccc(-n5cnc6nccnc65)nc34)c2F)c(C)c1 [Ex 60]
HCT116 pERK Ymin % [1]: −10%
IC50 [1, 3]: 1000 to 10000 nM
SW480 pERK Ymin % [2]: 10%
IC50 [2]: 1000 to 10000 nM

COc1ccc(S(=O)(=O)Nc2ccc(F)c(Nc3ncnc4ccc(-c5cnc6ccccc6c5)nc34)c2F)c(C)c1 [Ex 61]
HCT116 pERK Ymin % [1]: −8%
IC50 [1, 3]: 1000 to 10000 nM
SW480 pERK Ymin % [2]: 3%
IC50 [2]: 1000 to 10000 nM

COc1ccc(S(=O)(=O)Nc2ccc(F)c(Nc3ncnc4ccc(-c5ccncc5)nc34)c2F)c(C)c1 [Ex 63]
HCT116 pERK Ymin % [1]: −2.1%
IC50 [1, 3]: 1000 to 10000 nM
SW480 pERK Ymin % [2]: 10%
IC50 [2]: < 500 nM

COc1ccc(S(=O)(=O)Nc2ccc(F)c(Nc3ncnc4ccc(-c5cn[nH]c5)nc34)c2F)c(C)c1 [Ex 64]
HCT116 pERK Ymin % [1]: 4%
IC50 [1, 3]: 1000 to 10000 nM
SW480 pERK Ymin % [2]: 16%
IC50 [2]: 1000 to 10000 nM

COc1ccc(S(=O)(=O)Nc2ccc(F)c(Nc3ncnc4ccc(-c5cnn(C)c5)nc34)c2F)c(C)c1 [Ex 65]
HCT116 pERK Ymin % [1]: −7%
IC50 [1, 3]: 10000 to 30000 nM
SW480 pERK Ymin % [2]: 14%
IC50 [2]: 500 to 1000 nM

COc1ccc(S(=O)(=O)Nc2ccc(F)c(Nc3ncnc4ccc(-c5cccc(O)c5)nc34)c2F)c(C)c1 [Ex 72]
HCT116 pERK Ymin % [1]: 1%
IC50 [1, 3]: 1000 to 10000 nM
SW480 pERK Ymin % [2]: −7%
IC50 [2]: 1000 to 10000 nM

COc1ccc(S(=O)(=O)Nc2ccc(F)c(Nc3ncnc4ccc(-c5cccc(CO)c5)nc34)c2F)c(C)c1 [Ex 74]
HCT116 pERK Ymin % [1]: 1%
IC50 [1, 3]: 1000 to 10000 nM
SW480 pERK Ymin % [2]: 3.3%
IC50 [2]: 1000 to 10000 nM

N#Cc1cccc(-c2ccc3ncnc(Nc4c(F)ccc(NS(=O)(=O)c5ccccc5Cl)c4F)c3n2)c1 [Ex 77]
HCT116 pERK Ymin % [1]: −8%
IC50 [1, 3]: 1000 to 10000 nM
SW480 pERK Ymin % [2]: 2%
IC50 [2]: 1000 to 10000 nM

N#Cc1ccc(-c2ccc3ncnc(Nc4c(F)ccc(NS(=O)(=O)c5ccccc5Cl)c4F)c3n2)cc1 [Ex 78]
HCT116 pERK Ymin % [1]: −9%
IC50 [1, 3]: 1000 to 10000 nM
SW480 pERK Ymin % [2]: 1%
IC50 [2]: 1000 to 10000 nM

COc1ccc(S(=O)(=O)Nc2ccc(F)c(Nc3ncnc4ccc(-n5cnc6c(NC(C)=O)cccc65)nc34)c2F)c(C)c1 [Ex 79]
HCT116 pERK Ymin % [1]: 1.5%
IC50 [1, 3]: 500 to 1000 nM
SW480 pERK Ymin % [2]: 9.4%
IC50 [2]: 500 to 1000 nM

Cc1c([N+](=O)[O-])ncn1-c1ccc2ncnc(Nc3c(F)ccc(NS(=O)(=O)c4ccccc4Cl)c3F)c2n1 [Ex 82]
HCT116 pERK Ymin % [1]: −5%
IC50 [1, 3]: 1000 to 10000 nM
SW480 pERK Ymin % [2]: 2%
IC50 [2]: 1000 to 10000 nM

COc1ccc(S(=O)(=O)Nc2ccc(F)c(Nc3ncnc4ccc(-n5cc(C(N)=O)c6ccccc65)nc34)c2F)c(C)c1 [Example 69]
HCT116 pERK Ymin % [1]: −1%
IC50 [1, 3]: 1000 to 10000 nM
SW480 pERK Ymin % [2]: 3%
IC50 [2]: 1000 to 10000 nM

O=S(=O)(Nc1ccc(F)c(Nc2ncnc3ccc(-n4cnc5c(CCO)cccc54)nc23)c1F)c1cccc(Cl)c1Cl [Example 556]
IC50 ([1]; class symbol): < 500 nM

From patent publication US12139488B2, “Pyrido[3,2-d]pyrimidine compounds uses thereof for treating a proliferative disease” (Universite de Montreal, priority 2021, dated 2024)
